By IC90 is commonly meant the concentration needed for an effect of 90%.

The structures appear in SMILES notation. Counter-ions that a name gives are not always drawn.

This assay concerns Acinetobacter baumannii ATCC 17961. The assay is described as follows: Antimicrobial susceptibility testing: 90% growth inhibitory concentration (IC90) determination. The format is cell-based. The following applies: ATCC17961, Acinetobacter baumannii ATCC 17961, Iso-Sensitest broth, read-out: ATCC 17961 IC90. The protocol:
Antimicrobial Susceptibility Testing:
90% Growth Inhibitory Concentration (IC90) Determination
The in vitro antimicrobial activity of the compounds was determined according to the following procedure:
The assay used a 10-points Iso-Sensitest broth medium to measure quantitatively the in vitro activity of the compounds against Acinetobacter baumannii ATCC 17961.
Stock compounds in DMSO were serially twofold diluted (e.g. range from 50 to 0.097 μM final concentration) in 384 wells microtiter plates and inoculated with 49 μl the bacterial suspension in Iso-Sensitest medium to have a final cell concentration of ˜5×10^(5) CFU/ml in a final volume/well of 50 ul/well. Microtiter plates were incubated at 35±2° C.
Bacterial cell growth was determined with the measurement of optical density at X=600 nm each 20 minutes over a time course of 16 h. Growth inhibition was calculated during the logarithmic growth of the bacterial cells with determination of the concentration inhibiting 50% (IC50) and 90% (IC90) of the growth.
Table 1 provides the 90% growth inhibitory concentrations (IC90) in micromoles per liter of the compounds of present disclosure obtained against the strain Acinetobacter baumannii ATCC 17961.
With `Cn1c(-c2cn(CC#CCO)nc2C(F)(F)F)cnc1C(=O)Nc1ccc(C(=O)N2CCN(C(=O)C3CCNCC3)CC2)c(Cl)c1` [Example 6, N-(3-chloro-4-(4-(piperidine-4-carbonyl)piperazine-1-carbonyl)phenyl)-5-(1-(4-hydroxybut-2-yn-1-yl)-3-(trifluoromethyl)-1H-pyrazol-4-yl)-1-methyl-1H-imidazole-2-carboxamide hydrochloride], the IC90 came to 676 nM.

For the compound `C=CCn1cc(-c2cnc(C(=O)Nc3ccc(C(=O)N4CCN(C(=O)C5CCNCC5)CC4)c(Cl)c3)n2C)c(C(F)(F)F)n1` [Example 7, 5-(1-allyl-3-(trifluoromethyl)-1H-pyrazol-4-yl)-N-(3-chloro-4-(4-(piperidine-4-carbonyl)piperazine-1-carbonyl)phenyl)-1-methyl-1H-imidazole-2-carboxamide hydrochloride], the 90% effect concentration (IC90) was 358 nM.

Regarding `CC#CCn1cc(-c2cnc(C(=O)Nc3ccc(C(=O)N4CCN(C(=O)C5CCNCC5)CC4)c(Cl)c3)n2C)c(C(F)(F)F)n1` [Example 8, 5-(1-(but-2-yn-1-yl)-3-(trifluoromethyl)-1H-pyrazol-4-yl)-N-(3-chloro-4-(4-(piperidine-4-carbonyl)piperazine-1-carbonyl)phenyl)-1-methyl-1H-imidazole-2-carboxamide hydrochloride], the concentration for an effect of 90% (IC90) amounted to 327 nM.

For the compound `C#CC(C)n1cc(-c2cnc(C(=O)Nc3ccc(C(=O)N4CCN(C(=O)C5CCNCC5)CC4)c(Cl)c3)n2C)c(C(F)(F)F)n1` (centres unmarked) [Example 9, 5-(1-(but-3-yn-2-yl)-3-(trifluoromethyl)-1H-pyrazol-4-yl)-N-(3-chloro-4-(4-(piperidine-4-carbonyl)piperazine-1-carbonyl)phenyl)-1-methyl-1H-imidazole-2-carboxamide hydrochloride], the concentration for an effect of 90% (IC90) worked out at 320 nM.

`Cn1c(-c2cn(C3CCC3)nc2C(F)(F)F)cnc1C(=O)Nc1ccc(C(=O)N2CCN(C(=O)C3CCNCC3)CC2)c(Cl)c1` [Example 10, N-(3-chloro-4-(4-(piperidine-4-carbonyl)piperazine-1-carbonyl)phenyl)-5-(1-cyclobutyl-3-(trifluoromethyl)-1H-pyrazol-4-yl)-1-methyl-1H-imidazole-2-carboxamide hydrochloride]: the IC90 was determined as 339 nM.

For the compound `Cn1c(-c2cn(CCF)nc2C(F)(F)F)cnc1C(=O)Nc1ccc(C(=O)N2CCN(C(=O)C3CCNCC3)CC2)c(Cl)c1` [Example 11, N-(3-chloro-4-(4-(piperidine-4-carbonyl)piperazine-1-carbonyl)phenyl)-5-(1-(2-fluoroethyl)-3-(trifluoromethyl)-1H-pyrazol-4-yl)-1-methyl-1H-imidazole-2-carboxamide hydrochloride], the concentration for an effect of 90% (IC90) was found to be 466 nM.

Consider `Cn1c(-c2cn(CC(F)F)nc2C(F)(F)F)cnc1C(=O)Nc1ccc(C(=O)N2CCN(C(=O)C3CCNCC3)CC2)c(Cl)c1` [Example 12, N-(3-chloro-4-(4-(piperidine-4-carbonyl)piperazine-1-carbonyl)phenyl)-5-(1-(2,2-difluoroethyl)-3-(trifluoromethyl)-1H-pyrazol-4-yl)-1-methyl-1H-imidazole-2-carboxamide hydrochloride], for which the IC90 stood at 700 nM.

Consider `C#CCn1cc(-c2cnc(C(=O)Nc3ccc(C(=O)N4CCN(C(=O)C5CCN(C)CC5)CC4)c(Cl)c3)n2C)c(C(F)(F)F)n1` [Example 13, N-(3-chloro-4-(4-(1-methylpiperidine-4-carbonyl)piperazine-1-carbonyl)phenyl)-1-methyl-5-(1-(prop-2-yn-1-yl)-3-(trifluoromethyl)-1H-pyrazol-4-yl)-1H-imidazole-2-carboxamide], for which the IC90 was found to be 335 nM.

Take `CN1CCC(C(=O)N2CCN(C(=O)c3ccc(NC(=O)c4ncc(-c5c[nH]nc5C(F)(F)F)n4C)cc3Cl)CC2)CC1` [Example 14, N-[3-chloro-4-[4-(1-methylpiperidine-4-carbonyl)piperazine-1-carbonyl]phenyl]-1-methyl-5-[3-(trifluoromethyl)-1H-pyrazol-4-yl]imidazole-2-carboxamide]: the IC90 stood at 516 nM.

`CN1CCC(C(=O)N2CCN(C(=O)c3ccc(NC(=O)c4ncc(-c5cn(CC#N)nc5C(F)(F)F)n4C)cc3Cl)CC2)CC1` [Example 15, N-(3-chloro-4-(4-(1-methylpiperidine-4-carbonyl)piperazine-1-carbonyl)phenyl)-5-(1-(cyanomethyl)-3-(trifluoromethyl)-1H-pyrazol-4-yl)-1-methyl-1H-imidazole-2-carboxamide]: the concentration for an effect of 90% (IC90) is 558 nM.

Turning to `Cn1c(-c2cn(C3CS(=O)(=O)C3)nc2C(F)(F)F)cnc1C(=O)Nc1ccc(C(=O)N2CCN(C(=O)C3CCNCC3)CC2)c(Cl)c1` [Example 16, N-(3-chloro-4-(4-(piperidine-4-carbonyl)piperazine-1-carbonyl)phenyl)-5-(1-(1,1-dioxidothietan-3-yl)-3-(trifluoromethyl)-1H-pyrazol-4-yl)-1-methyl-1H-imidazole-2-carboxamide], the IC90 was 1360 nM.

For `Cn1c(-c2cn(CC#CCN)nc2C(F)(F)F)cnc1C(=O)Nc1ccc(C(=O)N2CCN(C(=O)C3CCNCC3)CC2)c(Cl)c1` [Example 17, 5-(1-(4-aminobut-2-yn-1-yl)-3-(trifluoromethyl)-1H-pyrazol-4-yl)-N-(3-chloro-4-(4-(piperidine-4-carbonyl)piperazine-1-carbonyl)phenyl)-1-methyl-1H-imidazole-2-carboxamide dihydrochloride], the IC90 was determined as 607 nM.

`COCC#CCn1cc(-c2cnc(C(=O)Nc3ccc(C(=O)N4CCN(C(=O)C5CCNCC5)CC4)c(Cl)c3)n2C)c(C(F)(F)F)n1` [Example 18, N-(3-chloro-4-(4-(piperidine-4-carbonyl)piperazine-1-carbonyl)phenyl)-5-(1-(4-methoxybut-2-yn-1-yl)-3-(trifluoromethyl)-1H-pyrazol-4-yl)-1-methyl-1H-imidazole-2-carboxamide hydrochloride]: the IC90 was 419 nM.

As for `CCC#CCn1cc(-c2cnc(C(=O)Nc3ccc(C(=O)N4CCN(C(=O)C5CCNCC5)CC4)c(Cl)c3)n2C)c(C(F)(F)F)n1` [Example 19, N-(3-chloro-4-(4-(piperidine-4-carbonyl)piperazine-1-carbonyl)phenyl)-1-methyl-5-(1-(pent-2-yn-1-yl)-3-(trifluoromethyl)-1H-pyrazol-4-yl)-1H-imidazole-2-carboxamide hydrochloride], the IC90 was determined as 172 nM.

Turning to `Cn1c(-c2cn(CC(N)=O)nc2C(F)(F)F)cnc1C(=O)Nc1ccc(C(=O)N2CCN(C(=O)C3CCNCC3)CC2)c(Cl)c1` [Example 20, 5-(1-(2-amino-2-oxoethyl)-3-(trifluoromethyl)-1H-pyrazol-4-yl)-N-(3-chloro-4-(4-(piperidine-4-carbonyl)piperazine-1-carbonyl)phenyl)-1-methyl-1H-imidazole-2-carboxamide formate], the IC90 was 1660 nM.

Regarding `CN(C)C(=O)Cn1cc(-c2cnc(C(=O)Nc3ccc(C(=O)N4CCN(C(=O)C5CCNCC5)CC4)c(Cl)c3)n2C)c(C(F)(F)F)n1` [Example 21, N-(3-chloro-4-(4-(piperidine-4-carbonyl)piperazine-1-carbonyl)phenyl)-5-(1-(2-(dimethylamino)-2-oxoethyl)-3-(trifluoromethyl)-1H-pyrazol-4-yl)-1-methyl-1H-imidazole-2-carboxamide formate], the concentration for an effect of 90% (IC90) amounted to 1870 nM.

As to `CC(C(N)=O)n1cc(-c2cnc(C(=O)Nc3ccc(C(=O)N4CCN(C(=O)C5CCNCC5)CC4)c(Cl)c3)n2C)c(C(F)(F)F)n1` (centres unmarked) [Example 22, 5-(1-(1-amino-1-oxopropan-2-yl)-3-(trifluoromethyl)-1H-pyrazol-4-yl)-N-(3-chloro-4-(4-(piperidine-4-carbonyl)piperazine-1-carbonyl)phenyl)-1-methyl-1H-imidazole-2-carboxamide formate], the 90% effect concentration (IC90) stood at 1290 nM.

Regarding `Cn1c(-c2cn(CCn3cccn3)nc2C(F)(F)F)cnc1C(=O)Nc1ccc(C(=O)N2CCN(C(=O)C3CCNCC3)CC2)c(Cl)c1` [Example 23, 5-(1-(2-(1H-pyrazol-1-yl)ethyl)-3-(trifluoromethyl)-1H-pyrazol-4-yl)-N-(3-chloro-4-(4-(piperidine-4-carbonyl)piperazine-1-carbonyl)phenyl)-1-methyl-1H-imidazole-2-carboxamide formate], the IC90 amounted to 1420 nM.

Take `CC(C)NC(=O)Cn1cc(-c2cnc(C(=O)Nc3ccc(C(=O)N4CCN(C(=O)C5CCNCC5)CC4)c(Cl)c3)n2C)c(C(F)(F)F)n1` [Example 24, N-(3-chloro-4-(4-(piperidine-4-carbonyl)piperazine-1-carbonyl)phenyl)-5-(1-(2-(isopropylamino)-2-oxoethyl)-3-(trifluoromethyl)-1H-pyrazol-4-yl)-1-methyl-1H-imidazole-2-carboxamide formate]: the IC90 is 981 nM.

`COCCOCCn1cc(-c2cnc(C(=O)Nc3ccc(C(=O)N4CCN(C(=O)C5CCNCC5)CC4)c(Cl)c3)n2C)c(C(F)(F)F)n1` [Example 25, N-(3-chloro-4-(4-(piperidine-4-carbonyl)piperazine-1-carbonyl)phenyl)-5-(1-(2-(2-methoxyethoxy)ethyl)-3-(trifluoromethyl)-1H-pyrazol-4-yl)-1-methyl-1H-imidazole-2-carboxamide]: the IC90 worked out at 2010 nM.

The record behind these values is US11390604B2 (Hoffmann-La Roche Inc., priority 2019, dated 2022).
